Columns and labels:
[1] = molecular target: CDK4/cyclin D1 (Homo sapiens (Human), UniProt P11802); test: CDK4 Caliper Mobility Shift assay; format: biochemical
Method: (§1) A Caliper Mobility Shift assay was used to determine the inhibitory activities of a compound against CDK4/cyclin D1 and CDK6/cyclin D1 in their respective kinase buffers (CDK4: 20 mM HEPES, pH 7.5, and 0.01% Triton X-100; CDK6: 50 mM HEPES, pH 7.5, and 0.0015% BRIJ-35). The CDK4/cyclin D1 and CDK6/cyclin D1 were obtained from PROQINASE and CARNA, respectively. A FAM-labeled peptide was obtained from GL.
(§2) The compound at predetermined concentrations was pre-incubated with CDK4/cyclin D1 or CDK6/cyclin D1 in a 384-well microplate at room temperature for 10 min. The FAM-labeled peptide and ATP were subsequently added to initiate the kinase reactions. The final enzyme concentrations were 15 nM for CDK4 and 7.5 nM for CDK6. The final ATP concentrations were […] for CDK4 and […] for CDK6. The microplate was allowed to incubate at 28° C. The kinase reactions were stopped by adding a stop buffer (100 mM HEPES, pH 7.5, 0.012% BRIJ-35, 0.2% Coating Reagent 3 (Caliper Life Sciences), and […]). Conversion data were recorded and utilized to calculate the percent inhibition values for each compound and an IC50 value was then determined. The results are summarized in Table 1, where the symbol “***” represents a value no greater than 200 nM, the symbol “**” represents a value greater than 200 nM but no greater than 500 nM, and the symbol “*” represents a value greater than 500 nM.

[2] = tested on: MCF-7 human breast cancer cells; test: CELLTITER-GLO luminescent cell viability assay; format: cell-based; conditions: MCF7, 192 h, MCF-7 cells, 8 days, read-out: EC50 (Effect on Cell Viability)
Method: A CELLTITER-GLO luminescent cell viability assay was carried out using MCF-7 human breast cancer cells under the normal growth condition. The MCF-7 human breast cancer cells were grown at 37° C. in a 5% CO2 humidified incubator in EMEM, supplemented 10% FBS, 0.01 mg/mL bovine insulin. The cells were seeded at a 3,000 cells/well in a 96-well tissue culture plate. The cells were allowed to adhere overnight in the incubator. A compound (5 μL) in a medium at a predetermined concentration. After the cells was incubated at 37° C. for 8 days, a CELLTITER-GLO detection solution (100 μL) was added. The cells were mixed on an orbital shaker for 5 min and then incubated for additional 10 min. The plate was read with an ENVISION reader. The results are summarized in Table 2, where the symbol “+++” represents a value no greater than 1 μM, the symbol “++” represents a value greater than 1 μM but no greater than 10 μM, and the symbol “+” represents a value greater than 10 μM.

[3] = molecular target: CDK6/cyclin D1 (Homo sapiens (Human), UniProt Q00534); test: CDK6 Caliper Mobility Shift assay; format: biochemical
Method: as §1, §2

Chain of CDK4/cyclin D1 (P11802 whole entry): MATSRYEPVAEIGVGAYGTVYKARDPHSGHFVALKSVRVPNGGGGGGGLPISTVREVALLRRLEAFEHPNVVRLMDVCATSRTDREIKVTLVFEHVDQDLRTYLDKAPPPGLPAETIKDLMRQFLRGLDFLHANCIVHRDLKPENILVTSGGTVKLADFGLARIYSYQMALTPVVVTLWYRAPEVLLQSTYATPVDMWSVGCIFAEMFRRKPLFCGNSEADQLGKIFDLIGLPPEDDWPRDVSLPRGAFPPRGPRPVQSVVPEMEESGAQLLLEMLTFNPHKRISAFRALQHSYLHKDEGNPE
Chain of CDK4/cyclin D1 (P24385 whole entry partner): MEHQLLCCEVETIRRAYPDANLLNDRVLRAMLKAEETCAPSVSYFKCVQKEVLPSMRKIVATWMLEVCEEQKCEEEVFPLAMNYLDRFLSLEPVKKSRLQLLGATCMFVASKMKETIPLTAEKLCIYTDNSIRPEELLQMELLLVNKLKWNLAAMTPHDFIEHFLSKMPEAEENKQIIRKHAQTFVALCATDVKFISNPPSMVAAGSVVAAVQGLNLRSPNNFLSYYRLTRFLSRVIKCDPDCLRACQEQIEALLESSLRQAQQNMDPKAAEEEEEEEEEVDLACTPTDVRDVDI
Chain of CDK6/cyclin D1 (Q00534 whole entry): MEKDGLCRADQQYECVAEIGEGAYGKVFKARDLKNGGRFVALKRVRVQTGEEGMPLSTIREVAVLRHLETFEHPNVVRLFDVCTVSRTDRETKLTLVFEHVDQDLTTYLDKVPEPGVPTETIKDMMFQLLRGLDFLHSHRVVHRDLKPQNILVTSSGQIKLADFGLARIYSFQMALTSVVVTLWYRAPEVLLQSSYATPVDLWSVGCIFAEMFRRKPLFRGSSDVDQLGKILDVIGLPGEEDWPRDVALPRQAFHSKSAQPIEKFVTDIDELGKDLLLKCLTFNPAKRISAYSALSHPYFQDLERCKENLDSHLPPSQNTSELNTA
Chain of CDK6/cyclin D1 (P24385 whole entry partner): as the sequence (P24385 whole entry partner) above

IC50 [1] [nM] | EC50 [2] [nM] | IC50 [3] [nM] | Structure (SMILES)
200 to 500 | 1000 to 10000 | ≤ 200 | CCOC(=O)NS(=O)(=O)N1CCN(c2ccc(Nc3ncc4c(C)c(C(C)=O)c(=O)n(C5CCCC5)c4n3)nc2)CC1 [Compound A25, Ethyl ((4-(6-((6-acetyl-8-cyclopentyl-5-methyl-7-oxo-7,8-dihydropyrido[2,3-d]-pyrimidin-2-yl)amino)pyridin-3-yl)piperazin-1-yl)sulfonyl)carbamate]
≤ 200 | 1000 to 10000 | ≤ 200 | CC(=O)c1c(C)c2cnc(Nc3ccc(N4CCN(S(=O)(=O)N5CCOCC5)CC4)cn3)nc2n(C2CCCC2)c1=O [Compound A51, 6-Acetyl-8-cyclopentyl-5-methyl-2-((5-(4-(morpholinosulfonyl)piperazin-1-yl)-pyridin-2-yl)amino)pyrido[2,3-d]pyrimidin-7(8H)-one]
≤ 200 |  | 200 to 500 | CC(=O)c1c(C)c2cnc(Nc3ccc(N4CCN(S(=O)(=O)O)CC4)cn3)nc2n(C2CCCC2)c1=O [Compound 6.1, 4-(6-((6-Acetyl-8-cyclopentyl-5-methyl-7-oxo-7,8-dihydropyrido[2,3-d]-pyrimidin-2-yl)amino)pyridin-3-yl)piperazine-1-sulfonic acid]
≤ 200 | ≤ 1000 | ≤ 200 | CC(=O)c1c(C)c2cnc(Nc3ccc(N4CCN(S(=O)(=O)NC(=O)[C@H]5CCCN5)CC4)cn3)nc2n(C2CCCC2)c1=O [Compound A33, (R)—N-((4-(6-((6-Acetyl-8-cyclopentyl-5-methyl-7-oxo-7,8-dihydropyrido[2,3-d]-pyrimidin-2-yl)amino)pyridin-3-yl)piperazin-1-yl)sulfonyl)pyrrolidine-2-carboxamide]
≤ 200 | 1000 to 10000 | ≤ 200 | CC(=O)c1c(C)c2cnc(Nc3ccc(N4CCN(S(=O)(=O)N5CC(O)C5)CC4)cn3)nc2n(C2CCCC2)c1=O [Compound A52, 6-Acetyl-8-cyclopentyl-2-((5-(4-((3-hydroxyazetidin-1-yl)sulfonyl)piperazin-1-yl)pyridin-2-yl)amino)-5-methylpyrido[2,3-d]pyrimidin-7(8H)-one]
 | ≤ 1000 |  | CC(=O)c1c(C)c2cnc(Nc3ccc(N4CCN(S(=O)(=O)n5ccnc5)CC4)cn3)nc2n(C2CCCC2)c1=O [Compound A58, 2-((5-(4-((1H-Imidazol-1-yl)sulfonyl)piperazin-1-yl)pyridin-2-yl)amino)-6-acetyl-8-cyclopentyl-5-methylpyrido[2,3-d]pyrimidin-7(8H)-one]
≤ 200 |  | ≤ 200 | CC(=O)c1c(C)c2cnc(Nc3ccc(N4CCN(S(=O)(=O)NC(=O)C5CC5)CC4)cn3)nc2n(C2CCCC2)c1=O [Compound A38, N-((4-(6-((6-Acetyl-8-cyclopentyl-5-methyl-7-oxo-7,8-dihydropyrido[2,3-d]-pyrimidin-2-yl)amino)pyridin-3-yl)piperazin-1-yl)sulfonyl)cyclopropanecarboxamide]
200 to 500 |  | 200 to 500 | CC(=O)c1c(C)c2cnc(Nc3ccc(N4CCN(S(=O)(=O)N(C)C)CC4)cn3)nc2n(C2CCCC2)c1=O [Compound A50, 4-(6-((6-Acetyl-8-cyclopentyl-5-methyl-7-oxo-7,8-dihydropyrido[2,3-d]-pyrimidin-2-yl)amino)pyridin-3-yl)-N,N-dimethylpiperazine-1-sulfonamide]
≤ 200 |  | 200 to 500 | CC(=O)c1c(C)c2cnc(Nc3ccc(N4CCN(S(N)(=O)=O)CC4)cn3)nc2n(C2CCCC2)c1=O [Compound A5, 4-(6-((6-acetyl-8-cyclopentyl-5-methyl-7-oxo-7,8-dihydropyrido[2,3-d]pyrimidin-2-yl)amino)pyridin-3-yl)-piperazine-1-sulfonamide]
≤ 200 |  | ≤ 200 | CC(=O)c1c(C)c2cnc(Nc3ccc(N4CCN(S(=O)(=O)NC(=O)OCCNC(=O)CN)CC4)cn3)nc2n(C2CCCC2)c1=O [Compound A20, 2-(2-Aminoacetamido)ethyl ((4-(6-((6-acetyl-8-cyclopentyl-5-methyl-7-oxo-7,8-dihydropyrido[2,3-d]pyrimidin-2-yl)amino)pyridin-3-yl)piperazin-1-yl)sulfonyl)carbamate]
≤ 200 |  | ≤ 200 | CC(=O)c1c(C)c2cnc(Nc3ccc(N4CCN(S(=O)(=O)NC(=O)OCCNC(=O)[C@H]5CCCN5)CC4)cn3)nc2n(C2CCCC2)c1=O [Compound A21, (R)-2-(Pyrrolidine-2-carboxamido)ethyl ((4-(6-((6-acetyl-8-cyclopentyl-5-methyl-7-oxo-7,8-dihydropyrido[2,3-d]pyrimidin-2-yl)amino)pyridin-3-yl)piperazin-1-yl)sulfonyl)-carbamate]
200 to 500 |  | ≤ 200 | CC(=O)c1c(C)c2cnc(Nc3ccc(N4CCN(S(=O)(=O)NC(=O)OCC(=O)O)CC4)cn3)nc2n(C2CCCC2)c1=O [Compound A11, 2-((((4-(6-((6-Acetyl-8-cyclopentyl-5-methyl-7-oxo-7,8-dihydropyrido[2,3-d]-pyrimidin-2-yl)amino)pyridin-3-yl)piperazin-1-yl)sulfonyl)carbamoyl)oxy)acetic acid]
≤ 200 |  | ≤ 200 | CC(=O)c1c(C)c2cnc(Nc3ccc(N4CCN(S(=O)(=O)NC(=O)OCCNC(=O)[C@@H](C)N)CC4)cn3)nc2n(C2CCCC2)c1=O [Compound A16, (R)-2-(2-Aminopropanamido)ethyl ((4-(6-((6-acetyl-8-cyclopentyl-5-methyl-7-oxo-7,8-dihydropyrido[2,3-d]pyrimidin-2-yl)amino)pyridin-3-yl)piperazin-1-yl)sulfonyl)-carbamate]
≤ 200 |  | ≤ 200 | CC(=O)c1c(C)c2cnc(Nc3ccc(N4CCN(S(=O)(=O)n5ccnc5N)CC4)cn3)nc2n(C2CCCC2)c1=O [Compound A57, 6-Acetyl-2-((5-(4-((2-amino-1H-imidazol-1-yl)sulfonyl)piperazin-1-yl)pyridin-2-yl)amino)-8-cyclopentyl-5-methylpyrido[2,3-d]pyrimidin-7(8H)-one]
≤ 200 |  | 200 to 500 | CNS(=O)(=O)N1CCN(c2ccc(Nc3ncc4c(C)c(C(C)=O)c(=O)n(C5CCCC5)c4n3)nc2)CC1 [Compound A46, 4-(6-((6-Acetyl-8-cyclopentyl-5-methyl-7-oxo-7,8-dihydropyrido[2,3-d]-pyrimidin-2-yl)amino)pyridin-3-yl)-N-methylpiperazine-1-sulfonamide]
≤ 200 |  | ≤ 200 | CC(=O)c1c(C)c2cnc(Nc3ccc(N4CCN(S(=O)(=O)NC(=O)OCCNC(=O)[C@@H](N)CC(C)C)CC4)cn3)nc2n(C2CCCC2)c1=O [Compound A17, (S)-2-(2-Amino-4-methylpentanamido)ethyl ((4-(6-((6-acetyl-8-cyclopentyl-5-methyl-7-oxo-7,8-dihydropyrido[2,3-d]pyrimidin-2-yl)amino)pyridin-3-yl)piperazin-1-yl)-sulfonyl)carbamate]
≤ 200 |  | 200 to 500 | CC(=O)c1c(C)c2cnc(Nc3ccc(N4CCN(S(=O)(=O)OC5CCCC5)CC4)cn3)nc2n(C2CCCC2)c1=O [Compound B4, Cyclopentyl 4-(6-((6-acetyl-8-cyclopentyl-5-methyl-7-oxo-7,8-dihydropyrido[2,3-d]pyrimidin-2-yl)amino)pyridin-3-yl)piperazine-1-sulfonate]
≤ 200 |  | ≤ 200 | CC(=O)c1c(C)c2cnc(Nc3ccc(N4CCN(S(=O)(=O)C(C)C)CC4)cn3)nc2n(C2CCCC2)c1=O [Compound C1, 6-acetyl-8-cyclopentyl-2-[[5-(4-isopropylsulfonylpiperazin-1-yl)-2-pyridyl]-amino]-5-methylpyrido[2,3-d]pyrimidin-7-one]

Structure (SMILES) | IC50 [1] [nM] | EC50 [2] [nM] | IC50 [3] [nM]
CC(=O)c1c(C)c2cnc(Nc3ccc(N4CCN(S(=O)(=O)NC(=O)C5CCOCC5)CC4)cn3)nc2n(C2CCCC2)c1=O [Compound A40, N-((4-(6-((6-Acetyl-8-cyclopentyl-5-methyl-7-oxo-7,8-dihydropyrido[2,3-d]-pyrimidin-2-yl)amino)pyridin-3-yl)piperazin-1-yl)sulfonyl)tetrahydro-2H-pyran-4-carboxamide] | ≤ 200 |  | ≤ 200
